Results as given in PMC10099721, “Substrate Induced Movement of the Metal Cofactor between Active and Resting State” (Angewandte Chemie (International Ed. in English), 2022).

Columns and labels:
Type in all cases: binding
[1] = target: T1, SwHKA (hydroxyketoacid aldolase from Sphingomonas wittichii RW1) (Rhizorhabdus wittichii, UniProt A0A9J9HGY6); experiment: X-ray crystal structure; conditions: with hydroxypyruvate in the active site; H-bonds to R69 and R120'
T1 construct: gene Swit_5035; N-terminal His6-tag, E. coli BL21(DE3), 251 residues per monomer, homohexamer (trimer of domain-swapped dimers), divalent metal dependent

[2] = target: T2, SwHKA (hydroxyketoacid aldolase from Sphingomonas wittichii RW1) (Rhizorhabdus wittichii, UniProt A0A9J9HGY6, F210W); experiment: X-ray crystal structure, […] A, soaked crystal; conditions: MgCl2 soak; bound in monomer B only; PDB id printed as 7OBU in the text but 7O87 (as F201W-HPA) in the Figure 2 legend
T2 construct: gene Swit_5035; N-terminal His6-tag, E. coli BL21(DE3), 251 residues per monomer, homohexamer (trimer of domain-swapped dimers), divalent metal dependent

[3] = target: T3, SwHKA (hydroxyketoacid aldolase from Sphingomonas wittichii RW1) (Rhizorhabdus wittichii, UniProt A0A9J9HGY6, S116C); experiment: nanoDSF melting temperature; conditions: absolute Tm, not a shift; MgCl2 10 mM, hydroxypyruvate 20 mM, Hepes 20 mM pH 7.5
T3 construct: gene Swit_5035; N-terminal His6-tag, E. coli BL21(DE3), 251 residues per monomer, homohexamer (trimer of domain-swapped dimers), divalent metal dependent

[4] = target: T4, SwHKA (hydroxyketoacid aldolase from Sphingomonas wittichii RW1) (Rhizorhabdus wittichii, UniProt A0A9J9HGY6, S116A); experiment: X-ray crystal structure; conditions: bound to the active-state metal, distorted geometry
T4 construct: gene Swit_5035; N-terminal His6-tag, E. coli BL21(DE3), 251 residues per monomer, homohexamer (trimer of domain-swapped dimers), divalent metal dependent
T4 sequence (A0A9J9HGY6 whole entry S116A, the tested form may be a part): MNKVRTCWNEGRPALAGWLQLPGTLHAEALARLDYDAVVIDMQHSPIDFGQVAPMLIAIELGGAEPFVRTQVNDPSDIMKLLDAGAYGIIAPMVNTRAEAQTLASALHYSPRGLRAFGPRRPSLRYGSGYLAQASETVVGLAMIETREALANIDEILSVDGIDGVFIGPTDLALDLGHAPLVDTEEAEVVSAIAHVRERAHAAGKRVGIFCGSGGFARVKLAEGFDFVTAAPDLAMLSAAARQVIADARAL

T3 sequence (A0A9J9HGY6 whole entry S116C, the tested form may be a part): as the sequence (A0A9J9HGY6 whole entry S116A, the tested form may be a part) above, with A116C counted along it
T1 sequence (A0A9J9HGY6 whole entry, the tested form may be a part): as the sequence (A0A9J9HGY6 whole entry S116A, the tested form may be a part) above, with A116S counted along it
T2 sequence (A0A9J9HGY6 whole entry F210W, the tested form may be a part): as the sequence (A0A9J9HGY6 whole entry S116A, the tested form may be a part) above, with A116S, F210W counted along it

SMILES	X-ray crystal structure [1]	X-ray crystal structure, 1.2 A, soaked crystal [2]	Tm [3]	X-ray crystal structure [4]
O=C[C@H](O)CO [D-glyceraldehyde]	Close‐up view of the active site of SwHKA with DGA bound (PDBID 8ADQ)			
O=C(O)C(=O)CO [hydroxypyruvate]		crystal structure of variant F210W soaked with MgCl2 and hydroxypyruvate could now be solved	73 °C	showed a strangely distorted geometry (Figure S13, S116A‐HPA PDBID 7NNK)
